Assay results published in the supplement of paper PMC10307832.

Assays:
Experiment in all cases: relative viability (nuclei count vs DMSO), 5 days (fraction); higher = more cells survive
COR-L 105 = tested on: COR-L 105
In short: (§1)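 After 5 days of treatment, lung cancer cells in 1536-well plates were fixed and stained in a single step (final 0.05% Triton X-100, 1% formaldehyde, 1 ug/ml Hoechst) and their nuclei counted on 4× images. Treatment had been applied by pin tool the day after seeding as one drug alone or as a fixed anchor-drug dose with five library-drug doses (not always all listed) in √10 steps. Relative viability is the nuclei count of treated wells divided by that of vehicle wells, and values are medians of duplicate plates.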

COR-L23 = tested on: COR-L23
In short: as §1

HARA = tested on: HARA
In short: as §1

HCC-15 = tested on: HCC-15
In short: as §1

HOP-62 = tested on: HOP-62
In short: as §1

NCI-H1355 = tested on: NCI-H1355
In short: as §1

NCI-H1734 = tested on: NCI-H1734
In short: as §1

NCI-H1755 = tested on: NCI-H1755
In short: as §1

NCI-H1792 = tested on: NCI-H1792
In short: as §1

NCI-H1993 = tested on: NCI-H1993
In short: as §1

NCI-H2009 = tested on: NCI-H2009
In short: as §1

NCI-H2170 = tested on: NCI-H2170
In short: as §1

NCI-H2228 = tested on: NCI-H2228
In short: as §1

NCI-H2347 = tested on: NCI-H2347
In short: as §1

NCI-H358 = tested on: NCI-H358
In short: as §1

NCI-H647 = tested on: NCI-H647
In short: as §1

NCI-H838 = tested on: NCI-H838
In short: as §1

SK-MES-1 = tested on: SK-MES-1
In short: as §1

UMC-11 = tested on: UMC-11
In short: as §1

## O=c1cc(-c2cccc3c2Sc2ccccc2S3)oc(N2CCOCC2)c1 + C[C@@H](Oc1cc(-c2cnn(C3CCNCC3)c2)cnc1N)c1c(Cl)ccc(F)c1Cl [Crizotinib] (partner 1 µM)
COR-L 105; first compound 0.08 µM
  relative viability: 0.833
COR-L 105; first compound 0.253 µM
  relative viability: 0.706
COR-L 105; first compound 0.8 µM
  relative viability: 0.752
COR-L 105; first compound 2.53 µM
  relative viability: 0.798
COR-L 105; first compound 8 µM
  relative viability: 1.07
COR-L23; first compound 0.08 µM
  relative viability: 0.744
COR-L23; first compound 0.253 µM
  relative viability: 0.876
COR-L23; first compound 0.8 µM
  relative viability: 0.792
COR-L23; first compound 2.53 µM
  relative viability: 0.737
COR-L23; first compound 8 µM
  relative viability: 0.616
HARA; first compound 0.08 µM
  relative viability: 0.971
HARA; first compound 0.253 µM
  relative viability: 1.12
HARA; first compound 0.8 µM
  relative viability: 1
HARA; first compound 2.53 µM
  relative viability: 1.05
HARA; first compound 8 µM
  relative viability: 1.28
HCC-15; first compound 0.08 µM
  relative viability: 0.952
HCC-15; first compound 0.253 µM
  relative viability: 0.934
HCC-15; first compound 0.8 µM
  relative viability: 1.01
HCC-15; first compound 2.53 µM
  relative viability: 0.857
HCC-15; first compound 8 µM
  relative viability: 0.827
HOP-62; first compound 0.08 µM
  relative viability: 0.842
HOP-62; first compound 0.253 µM
  relative viability: 0.998
HOP-62; first compound 0.8 µM
  relative viability: 0.989
HOP-62; first compound 2.53 µM
  relative viability: 0.653
HOP-62; first compound 8 µM
  relative viability: 0.904
NCI-H1355; first compound 0.08 µM
  relative viability: 1.08
NCI-H1355; first compound 0.253 µM
  relative viability: 1.16
NCI-H1355; first compound 0.8 µM
  relative viability: 1.04
NCI-H1355; first compound 2.53 µM
  relative viability: 1.06
NCI-H1355; first compound 8 µM
  relative viability: 0.98
NCI-H1734; first compound 0.08 µM
  relative viability: 0.686
NCI-H1734; first compound 0.253 µM
  relative viability: 0.802
NCI-H1734; first compound 0.8 µM
  relative viability: 0.9
NCI-H1734; first compound 2.53 µM
  relative viability: 0.872
NCI-H1734; first compound 8 µM
  relative viability: 0.672
NCI-H1755; first compound 0.08 µM
  relative viability: 0.961
NCI-H1755; first compound 0.253 µM
  relative viability: 0.974
NCI-H1755; first compound 0.8 µM
  relative viability: 0.937
NCI-H1755; first compound 2.53 µM
  relative viability: 0.878
NCI-H1755; first compound 8 µM
  relative viability: 0.85
NCI-H1792; first compound 0.253 µM
  relative viability: 1.64
NCI-H1792; first compound 0.8 µM
  relative viability: 0.987
NCI-H1792; first compound 2.53 µM
  relative viability: 0.896
NCI-H1792; first compound 8 µM
  relative viability: 1.19
NCI-H1993; first compound 0.08 µM
  relative viability: 0.838
NCI-H1993; first compound 0.253 µM
  relative viability: 1.01
NCI-H1993; first compound 0.8 µM
  relative viability: 0.89
NCI-H1993; first compound 2.53 µM
  relative viability: 0.871
NCI-H1993; first compound 8 µM
  relative viability: 0.99
NCI-H2009; first compound 0.08 µM
  relative viability: 1.02
NCI-H2009; first compound 0.253 µM
  relative viability: 1.02
NCI-H2009; first compound 0.8 µM
  relative viability: 1.05
NCI-H2009; first compound 2.53 µM
  relative viability: 0.957
NCI-H2009; first compound 8 µM
  relative viability: 1.03
NCI-H2170; first compound 0.08 µM
  relative viability: 1.17
NCI-H2170; first compound 0.253 µM
  relative viability: 1.19
NCI-H2170; first compound 0.8 µM
  relative viability: 1.31
NCI-H2170; first compound 2.53 µM
  relative viability: 1.12
NCI-H2170; first compound 8 µM
  relative viability: 1.26
NCI-H2228; first compound 0.08 µM
  relative viability: 0.407
NCI-H2228; first compound 0.253 µM
  relative viability: 0.506
NCI-H2228; first compound 0.8 µM
  relative viability: 0.399
NCI-H2228; first compound 2.53 µM
  relative viability: 0.394
NCI-H2228; first compound 8 µM
  relative viability: 0.354
NCI-H2347; first compound 0.08 µM
  relative viability: 0.654
NCI-H2347; first compound 0.253 µM
  relative viability: 0.394
NCI-H2347; first compound 0.8 µM
  relative viability: 0.738
NCI-H2347; first compound 2.53 µM
  relative viability: 0.769
NCI-H2347; first compound 8 µM
  relative viability: 0.711
NCI-H358; first compound 0.08 µM
  relative viability: 0.629
NCI-H358; first compound 0.253 µM
  relative viability: 0.634
NCI-H358; first compound 0.8 µM
  relative viability: 0.657
NCI-H358; first compound 2.53 µM
  relative viability: 0.466
NCI-H358; first compound 8 µM
  relative viability: 0.574
NCI-H647; first compound 0.08 µM
  relative viability: 1.06
NCI-H647; first compound 0.253 µM
  relative viability: 1.09
NCI-H647; first compound 0.8 µM
  relative viability: 0.949
NCI-H647; first compound 2.53 µM
  relative viability: 1.02
NCI-H647; first compound 8 µM
  relative viability: 1.12
NCI-H838; first compound 0.08 µM
  relative viability: 0.883
NCI-H838; first compound 0.253 µM
  relative viability: 0.988
NCI-H838; first compound 0.8 µM
  relative viability: 0.82
NCI-H838; first compound 2.53 µM
  relative viability: 0.794
NCI-H838; first compound 8 µM
  relative viability: 0.816
SK-MES-1; first compound 0.08 µM
  relative viability: 1.03
SK-MES-1; first compound 0.253 µM
  relative viability: 0.949
SK-MES-1; first compound 0.8 µM
  relative viability: 0.937
SK-MES-1; first compound 2.53 µM
  relative viability: 0.925
SK-MES-1; first compound 8 µM
  relative viability: 1.02
UMC-11; first compound 0.08 µM
  relative viability: 0.729
UMC-11; first compound 0.253 µM
  relative viability: 0.566
UMC-11; first compound 0.8 µM
  relative viability: 0.729
UMC-11; first compound 2.53 µM
  relative viability: 0.644
UMC-11; first compound 8 µM
  relative viability: 0.701

## COc1nc(C)cnc1NS(=O)(=O)c1cccnc1-c1ccc(-c2nnco2)cc1 [Zibotentan] + CC(C)C[C@H](NC(=O)[C@H](Cc1ccccc1)NC(=O)c1cnccn1)B(O)O [Bortezomib] (partner 0.002 µM)
COR-L 105; first compound 0.08 µM
  relative viability: 0.819
COR-L 105; first compound 0.253 µM
  relative viability: 0.694
COR-L 105; first compound 0.8 µM
  relative viability: 0.859
COR-L 105; first compound 2.53 µM
  relative viability: 0.994
COR-L23; first compound 0.08 µM
  relative viability: 0.999
COR-L23; first compound 0.253 µM
  relative viability: 0.917
COR-L23; first compound 0.8 µM
  relative viability: 0.98
COR-L23; first compound 2.53 µM
  relative viability: 1.07
HARA; first compound 0.08 µM
  relative viability: 1.18
HARA; first compound 0.253 µM
  relative viability: 1.13
HARA; first compound 0.8 µM
  relative viability: 1.15
HARA; first compound 2.53 µM
  relative viability: 1.19
HCC-15; first compound 0.08 µM
  relative viability: 0.99
HCC-15; first compound 0.253 µM
  relative viability: 1.01
HCC-15; first compound 0.8 µM
  relative viability: 0.979
HCC-15; first compound 2.53 µM
  relative viability: 1.09
HOP-62; first compound 0.08 µM
  relative viability: 0.732
HOP-62; first compound 0.253 µM
  relative viability: 0.625
HOP-62; first compound 0.8 µM
  relative viability: 1.08
HOP-62; first compound 2.53 µM
  relative viability: 0.724
NCI-H1355; first compound 0.08 µM
  relative viability: 1.2
NCI-H1355; first compound 0.253 µM
  relative viability: 1.36
NCI-H1355; first compound 0.8 µM
  relative viability: 1.05
NCI-H1355; first compound 2.53 µM
  relative viability: 1.24
NCI-H1734; first compound 0.08 µM
  relative viability: 1.1
NCI-H1734; first compound 0.253 µM
  relative viability: 0.894
NCI-H1734; first compound 0.8 µM
  relative viability: 0.972
NCI-H1734; first compound 2.53 µM
  relative viability: 1
NCI-H1755; first compound 0.08 µM
  relative viability: 0.945
NCI-H1755; first compound 0.253 µM
  relative viability: 0.952
NCI-H1755; first compound 0.8 µM
  relative viability: 0.968
NCI-H1755; first compound 2.53 µM
  relative viability: 0.97
NCI-H1792; first compound 0.08 µM
  relative viability: 0.912
NCI-H1792; first compound 0.253 µM
  relative viability: 0.833
NCI-H1792; first compound 0.8 µM
  relative viability: 0.921
NCI-H1792; first compound 2.53 µM
  relative viability: 0.935
NCI-H1993; first compound 0.253 µM
  relative viability: 1.05
NCI-H1993; first compound 0.8 µM
  relative viability: 0.994
NCI-H1993; first compound 2.53 µM
  relative viability: 1.8
NCI-H2009; first compound 0.08 µM
  relative viability: 1.04
NCI-H2009; first compound 0.253 µM
  relative viability: 0.973
NCI-H2009; first compound 0.8 µM
  relative viability: 1.11
NCI-H2009; first compound 2.53 µM
  relative viability: 1.12
NCI-H2228; first compound 0.08 µM
  relative viability: 0.801
NCI-H2228; first compound 0.253 µM
  relative viability: 0.821
NCI-H2228; first compound 0.8 µM
  relative viability: 0.97
NCI-H2228; first compound 2.53 µM
  relative viability: 1.07
NCI-H2347; first compound 0.08 µM
  relative viability: 1.08
NCI-H2347; first compound 0.253 µM
  relative viability: 0.871
NCI-H2347; first compound 0.8 µM
  relative viability: 1.04
NCI-H2347; first compound 2.53 µM
  relative viability: 0.734
NCI-H647; first compound 0.08 µM
  relative viability: 0.859
NCI-H647; first compound 0.253 µM
  relative viability: 0.818
NCI-H647; first compound 0.8 µM
  relative viability: 0.891
NCI-H647; first compound 2.53 µM
  relative viability: 1.11
NCI-H838; first compound 0.08 µM
  relative viability: 0.891
NCI-H838; first compound 0.253 µM
  relative viability: 0.865
NCI-H838; first compound 0.8 µM
  relative viability: 0.815
NCI-H838; first compound 2.53 µM
  relative viability: 0.961
UMC-11; first compound 0.08 µM
  relative viability: 0.601
UMC-11; first compound 0.253 µM
  relative viability: 0.623
UMC-11; first compound 0.8 µM
  relative viability: 0.668
UMC-11; first compound 2.53 µM
  relative viability: 0.909
